Literature values in patent US11351146B2, “Topical compositions for the treatment of cutaneous leishmaniasis” (AC BIOSCIENCE SA, priority 2017, dated 2022).

What was measured:
[1] = test system: intracellular amastigote; conditions: versus glucantime
[2] = test system: L. mexicana, L. infantum and L. major promastigotes

CCOC(=O)c1cccc(NC(=O)CCl)c1 [MF 29, 3-(2-chloroacetamido) ethyl benzoate]
fold more active than glucantime [1]: 400 fold
effect on promastigotes strains ([2]; L. mexicana, L. infantum and L. major promastigotes): high effect
fold more active than glucantime ([2]; promastigote, versus glucantime): 400 fold
